Reference: publication PMC12794188, “Maternal–Fetal Transfer and Toxicokinetics of 2,2′,5,5′-Tetrachlorobiphenyl, [^14C]-PCB52, Following Intratracheal Administration” (Chemical Research in Toxicology, 2025)

Experiment: Toxicokinetics and tissue disposition of total [14C] radioactivity after a single intratracheal dose of [14C]-PCB52 (0.157 mg/kg) in pregnant rats at GD 11±1
Assay type: in vivo, Sprague–Dawley rats
Protocol: Female Sprague–Dawley rats (8 weeks old) weighing 237–269.7 g (mean = 247.5 g) (Envigo RMS, LLC, Indianapolis, IN) were used for this study. All animal experiments were performed following the protocols evaluated and approved by the University of Iowa Institutional Animal Care and Use Committee (approval number 3091097). After arrival, the animals were acclimated for 7 days. The animals were housed in a light and temperature-controlled environment with ad libitum access to food and water during quarantine and throughout the study. Timed pregnancy was achieved by harem mating. , Briefly, one male and two female rats were placed together in the evening and checked for vaginal plug the following day. If vaginal plug was present, the male was removed from the breeding cage, and the gestation day 0 (GD 0), 0-day post coitum was assigned. Pregnancies were confirmed by ultrasound scan at GD 9. The dams were exposed at GD 11 (±1 day) to capture the period of early organogenesis and hormonal function, which falls within week 3 of human embryonic development. ,− On the day of the experiment, pregnant rats were intratracheally administered an average of 40 μg (range, 35–45 μg) of [^14C]-PCB52 in 100 μL of exposure solution. Although the dose used in this study exceeded the tolerable daily intake (TDI) of PCBs for healthy individuals, which is 1.6 μg per day for an individual weighing 80 kg, the use of higher acute doses has been established in toxicological studies intended for risk assessment. The intratracheal instillation method was chosen for administering [^14C]-PCB52 to represent inhalation exposures, capture exhaled concentration, and efficiently utilize the limited availability of the cost-intensive radiolabeled PCB52. , Although inhalation exposure would better represent real-world exposures to airborne LC-PCBs, it would not allow us to accurately measure the amount of PCB52 exhaled into the air after exposure and is experimentally infeasible. […] All intratracheal instillations were done under light anesthesia, achieved using a 4% isoflurane concentration via a Fortec vaporizer (Cyprane, Keighley, UK). The animals recovered from anesthesia within 1 min. Subsequently, the animals were housed within a cylindrical glass chamber measuring 2 L in volume, equipped with glass drainage mechanisms to facilitate urine collection and a metallic screen to segregate urine from feces (as in Figure S1). Air was drawn from the chamber at 6.0 L/min through a cartridge containing the XAD-2 polymeric resin to capture any exhaled [^14C]-PCB52. For periods longer than 24 h postexposure, exposed dams were placed in a metabolic cage, which was fitted with a cartridge containing XAD-2 to capture exhaled [^14C]-PCB52 as in other end points.
Maternal blood, urine, and feces samples were collected immediately before and at 0.21, 1.67, 12, 24, 48, and 96 h after lung dosing. The exposed dams were euthanized using 4% isoflurane, followed by cervical dislocation and exsanguination via a cardiac puncture. Euthanasia was consistently performed during the light cycle. Dams’ fur was wiped and analyzed for radioactivity. Using the retro-orbital blood collection method, 0.5–1.5 mL ([…] of an exposed pregnant rat’s body weight) of blood sample was collected from each of the dams until the individual dams were necropsied for whole-body tissue harvesting. At the end of the exposure period, the chamber’s interior walls were rinsed separately with water and acetone/hexane (25 – 45 mL) and wiped to measure residues. From the collected whole blood samples, 100 μL were aliquoted into three vials each, and the remaining blood was allowed to clot at room temperature before being centrifuged to yield serum. The placentas, developing fetuses, and whole-body tissue samples were harvested immediately before exposure and at 0.21, 1.67, 12, 24, and 96 h postexposure. […]

[1] = AF (amniotic fluid)/MS (maternal serum)
[2] = Adipose tissue, 0.21 h post-exposure
[3] = Adipose tissue, 1.67 h post-exposure
[4] = Adipose tissue, 12 h post-exposure
[5] = Brown adipose, 0.21 h post-exposure
[6] = Brown adipose, 1.67 h post-exposure
[7] = Brown adipose, 12 h post-exposure
[8] = Brown adipose, 24 h post-exposure
[9] = Brown adipose, 96 h post-exposure
[10] = Esophagus, 0.21 h post-exposure
[11] = Esophagus, 1.67 h post-exposure
[12] = Mammary glands, 0.21 h post-exposure
[13] = Mammary glands, 1.67 h post-exposure
[14] = Mammary glands, 12 h post-exposure
[15] = Mammary glands, 24 h post-exposure
[16] = Mammary glands, 96 h post-exposure
[17] = Matter in duodenum, 0.21 h post-exposure
[18] = Matter in duodenum, 1.67 h post-exposure
[19] = Matter in duodenum, 12 h post-exposure
[20] = Matter in duodenum, 24 h post-exposure
[21] = Matter in duodenum, 96 h post-exposure
[22] = Matter in intestine, 0.21 h post-exposure
[23] = Matter in intestine, 1.67 h post-exposure
[24] = Matter in intestine, 12 h post-exposure
[25] = Matter in intestine, 24 h post-exposure
[26] = Matter in intestine, 96 h post-exposure
[27] = Matter in stomach, 0.21 h post-exposure
[28] = Matter in stomach, 1.67 h post-exposure
[29] = Matter in stomach, 12 h post-exposure
[30] = Matter in stomach, 24 h post-exposure
[31] = Matter in stomach, 96 h post-exposure

## Clc1ccc(Cl)c(-c2cc(Cl)ccc2Cl)c1 [PCB52, 2,2′,5,5′-Tetrachlorobiphenyl]
[1]
  AUC0‑∞ ratio: 0.050
  AUC0–96h ratio: 0.053
  C max ratio: 0.043
AF (amniotic fluid)/brain
  AUC0–96h ratio: 0.079
  C max ratio: 0.071
Adipose tissue
  AUC_%Extrap: 42.32%
  Terminal elimination half-life (t1/2): 72.85 h
[2]
  Conc. per mg wet tissue: 8.78 dpm/mg
  Percent tissue distribution: 10.92%
[3]
  Conc. per mg wet tissue: 19.77 dpm/mg
  Percent tissue distribution: 33.81%
[4]
  Conc. per mg wet tissue: 27.29 dpm/mg
  Percent tissue distribution: 26.32%
Adipose tissue, 24 h post-exposure
  Percent tissue distribution: 28.25%
Adrenal gland
  AUC_%Extrap: 74.40%
  Terminal elimination half-life (t1/2): 253.59 h
Bladder
  AUC_%Extrap: 40.50%
  Terminal elimination half-life (t1/2): 57.81 h
Brain, 0.21 h post-exposure
  Conc. per mg wet tissue: 1.44 dpm/mg
  Percent tissue distribution: 0.79%
Brain, 1.67 h post-exposure
  Conc. per mg wet tissue: 4.90 dpm/mg
  Percent tissue distribution: 0.52%
Brain, 12 h post-exposure
  Conc. per mg wet tissue: 0.67 dpm/mg
  Percent tissue distribution: 0.08%
Brain, 24 h post-exposure
  Conc. per mg wet tissue: 0.64 dpm/mg
  Percent tissue distribution: 0.07%
Brain, 96 h post-exposure
  Conc. per mg wet tissue: 0.67 dpm/mg
  Percent tissue distribution: 0.10%
Bronchi, 0.21 h post-exposure
  Conc. per mg wet tissue: 81.91 dpm/mg
  Percent tissue distribution: 0.66%
Bronchi, 1.67 h post-exposure
  Conc. per mg wet tissue: 33.51 dpm/mg
  Percent tissue distribution: 0.20%
Bronchi, 12 h post-exposure
  Conc. per mg wet tissue: 20.05 dpm/mg
  Percent tissue distribution: 0.10%
Bronchi, 24 h post-exposure
  Conc. per mg wet tissue: 18.87 dpm/mg
  Percent tissue distribution: 0.08%
Bronchi, 96 h post-exposure
  Conc. per mg wet tissue: 1.44 dpm/mg
  Percent tissue distribution: 0.01%
[5]
  Conc. per mg wet tissue: 40.87 dpm/mg
  Percent tissue distribution: 0.21%
[6]
  Conc. per mg wet tissue: 120.53 dpm/mg
  Percent tissue distribution: 0.87%
[7]
  Conc. per mg wet tissue: 27.78 dpm/mg
  Percent tissue distribution: 0.00%
[8]
  Conc. per mg wet tissue: 23.09 dpm/mg
  Percent tissue distribution: 0.18%
[9]
  Conc. per mg wet tissue: 4.17 dpm/mg
  Percent tissue distribution: 0.00%
Colon tissue
  AUC_%Extrap: 22.17%
  Terminal elimination half-life (t1/2): 40.46 h
Colon, 0.21 h post-exposure
  Conc. per mg wet tissue: 9.24 dpm/mg
  Percent tissue distribution: 0.35%
Colon, 1.67 h post-exposure
  Conc. per mg wet tissue: 5.24 dpm/mg
  Percent tissue distribution: 0.28%
Colon, 12 h post-exposure
  Conc. per mg wet tissue: 5.56 dpm/mg
  Percent tissue distribution: 0.41%
Colon, 24 h post-exposure
  Conc. per mg wet tissue: 9.18 dpm/mg
  Percent tissue distribution: 0.51%
Colon, 96 h post-exposure
  Conc. per mg wet tissue: 1.87 dpm/mg
  Percent tissue distribution: 0.16%
Duodenum
  AUC_%Extrap: 14.10%
  Terminal elimination half-life (t1/2): 34.84 h
  Tmax: ≤ 0.21 h
Duodenum, 0.21 h post-exposure
  Conc. per mg wet tissue: 21.37 dpm/mg
  Percent tissue distribution: 0.71%
Duodenum, 1.67 h post-exposure
  Conc. per mg wet tissue: 8.50 dpm/mg
  Percent tissue distribution: 0.25%
Duodenum, 12 h post-exposure
  Conc. per mg wet tissue: 3.28 dpm/mg
  Percent tissue distribution: 0.12%
Duodenum, 24 h post-exposure
  Conc. per mg wet tissue: 4.69 dpm/mg
  Percent tissue distribution: 0.17%
Duodenum, 96 h post-exposure
  Conc. per mg wet tissue: 0.83 dpm/mg
  Percent tissue distribution: 0.05%
Esophagus
  AUC_%Extrap: 11.71%
  Terminal elimination half-life (t1/2): 46.31 h
[10]
  Conc. per mg wet tissue: 72.35 dpm/mg
  Percent tissue distribution: 0.51%
[11]
  Conc. per mg wet tissue: 5.67 dpm/mg
  Percent tissue distribution: 0.06%
Esophagus, 12 h post-exposure
  Conc. per mg wet tissue: 1.09 dpm/mg
  Percent tissue distribution: 0.01%
Esophagus, 24 h post-exposure
  Conc. per mg wet tissue: 0.76 dpm/mg
  Percent tissue distribution: 0.01%
Esophagus, 96 h post-exposure
  Conc. per mg wet tissue: 0.25 dpm/mg
  Percent tissue distribution: 0.003%
Fetus
  AUC_%Extrap: 9.23%
  Terminal elimination half-life (t1/2): 34.78 h
  maternal serum exposure ratio: 0.27
Heart
  AUC_%Extrap: 6.21%
  Terminal elimination half-life (t1/2): 26.21 h
Heart, 96 h post-exposure
  Conc. per mg wet tissue: 0.61 dpm/mg
Kidney
  AUC_%Extrap: 13.09%
  Terminal elimination half-life (t1/2): 35.41 h
Liver
  AUC_%Extrap: 14.37%
  Terminal elimination half-life (t1/2): 42.13 h
Liver, 0.21 h post-exposure
  Conc. per mg wet tissue: 55.77 dpm/mg
  Percent tissue distribution: 17.36%
Liver, 1.67 h post-exposure
  Conc. per mg wet tissue: 23.78 dpm/mg
  Percent tissue distribution: 6.58%
Liver, 12 h post-exposure
  Conc. per mg wet tissue: 11.09 dpm/mg
  Percent tissue distribution: 1.88%
Liver, 24 h post-exposure
  Conc. per mg wet tissue: 8.22 dpm/mg
  Percent tissue distribution: 1.63%
Liver, 96 h post-exposure
  Conc. per mg wet tissue: 1.16 dpm/mg
  Percent tissue distribution: 0.41%
Lung
  AUC_%Extrap: 4.66%
  Terminal elimination half-life (t1/2): 22.05 h
Mammary glands
  AUC_%Extrap: 15.15%
  Terminal elimination half-life (t1/2): 34.16 h
[12]
  Conc. per mg wet tissue: 5.39 dpm/mg
  Percent tissue distribution: 0.28%
[13]
  Conc. per mg wet tissue: 2.46 dpm/mg
  Percent tissue distribution: 1.21%
[14]
  Conc. per mg wet tissue: 0.74 dpm/mg
  Percent tissue distribution: 1.18%
[15]
  Conc. per mg wet tissue: 1.55 dpm/mg
  Percent tissue distribution: 0.90%
[16]
  Conc. per mg wet tissue: 1.67 dpm/mg
  Percent tissue distribution: 0.18%
Matter in Colon
  AUC_%Extrap: 23.30%
  Terminal elimination half-life (t1/2): 40.00 h
Matter in amp colon
  AUC_%Extrap: 13.09%
  Terminal elimination half-life (t1/2): 30.46 h
Matter in duodenum
  AUC_%Extrap: 26.66%
  Terminal elimination half-life (t1/2): 34.63 h
[17]
  Conc. per mg wet tissue: 6.81 dpm/mg
  Percent tissue distribution: 0.44%
[18]
  Conc. per mg wet tissue: 51.01 dpm/mg
  Percent tissue distribution: 0.57%
[19]
  Conc. per mg wet tissue: 14.38 dpm/mg
  Percent tissue distribution: 0.16%
[20]
  Conc. per mg wet tissue: 16.72 dpm/mg
  Percent tissue distribution: 0.19%
[21]
  Conc. per mg wet tissue: 0.68 dpm/mg
  Percent tissue distribution: 0.33%
Matter in intestine
  AUC_%Extrap: 2.18%
  Terminal elimination half-life (t1/2): 17.41 h
[22]
  Conc. per mg wet tissue: 10.76 dpm/mg
  Percent tissue distribution: 0.70%
[23]
  Conc. per mg wet tissue: 1.07 dpm/mg
  Percent tissue distribution: 4.97%
[24]
  Conc. per mg wet tissue: 0.75 dpm/mg
  Percent tissue distribution: 1.53%
[25]
  Conc. per mg wet tissue: 13.86 dpm/mg
  Percent tissue distribution: 2.58%
[26]
  Conc. per mg wet tissue: 0.41 dpm/mg
  Percent tissue distribution: 0.02%
Matter in stomach
  AUC_%Extrap: 4.07%
  Terminal elimination half-life (t1/2): 16.50 h
[27]
  Conc. per mg wet tissue: 28.20 dpm/mg
  Percent tissue distribution: 0.47%
[28]
  Conc. per mg wet tissue: 5.71 dpm/mg
  Percent tissue distribution: 0.06%
[29]
  Conc. per mg wet tissue: 1.71 dpm/mg
  Percent tissue distribution: 0.09%
[30]
  Conc. per mg wet tissue: 1.57 dpm/mg
  Percent tissue distribution: 1.52%
[31]
  Conc. per mg wet tissue: 0.18 dpm/mg
  Percent tissue distribution: 0.04%
Muscle
  AUC_%Extrap: 96.68%
  Terminal elimination half-life (t1/2): 1231.42 h
Muscle, 0.21 h post-exposure
  Conc. per mg wet tissue: 1.58 dpm/mg
  Percent tissue distribution: 28.65%
Muscle, 96 h post-exposure
  Conc. per mg wet tissue: 1.58 dpm/mg
Ovary
  AUC_%Extrap: 25.93%
  Terminal elimination half-life (t1/2): 46.53 h
Ovary, 0.21 h post-exposure
  Conc. per mg wet tissue: 19.85 dpm/mg
